Results as given in patent US7569695B2, “Dyes for the detection or quantification of desirable target molecules” (Enzo Life Sciences, Inc., priority 2005, dated 2009).

Columns and labels:
Format in all cases: biochemical
[1] = tested on: 78 bp amplicon from the anti-sense C construct; assay: Amplification of nucleic acids in the presence of dye using a standard PCR machine (Example 34); conditions: for amplicon synthesis (gel analysis, FIG. 2): 20 cycles
Method: The experiment shown in Example 33 was repeated using a standard PCR machine for synthesis to see if the effects observed in Example 33 was dependent upon the rapid heating and cooling steps used in the Light Cycler.
A master mixture was made up of: • 500 µl of 2× PCR mix described in example 33 • 20 µl of 25 mM MgCl2 • 175 µl of DEPC treated H2O • 10 ul of 1 u/l ung (Epicentre) • 10 µl of 10 mg/ml BSA (New England Biolabs, Beverly, Mass.) • 10 l Taq polymease (Perkin Elmer)+10 µl of TaqStart (Clontech) PCR conditions were 2.5 µl of target template+2.0 l of dye was added to 15.5 µl of Master mixture incubated at 45° C. for 10 minutes and then amplified using cycles of: • a) 94° C. for 30 seconds • b) 65° C. for 30 seconds • c) 72° C. for 1 minute
A duplicate set of samples was amplified with one set being taken out after 20 cycles of amplification and the second set undergoing 40 cycles. […] The other effect previously observed was also seen, i.e. non-target amplicon synthesis seen in the no Dye reaction (lane 1) was reduced with the 1:200 dilution of SYBR Green and the 1:10 dilution of Dye 109 again repeating the results of Example 33.

[2] = tested on: 78 bp amplicon of the anti-sense C construct; assay: Amplification on the Light Cycler in the presence of Dye 122 and 109a, 19 cycles (Example 35)
From the text: A target template was amplified on the Light Cycler (Roche) in the presence of various amounts of SYBR Green and Dye 122 from Example 32. In addition, a byproduct from the silica gel chromatography of Dye 109 in step (g) of Example 14 was also used. This compound is believed to have a single protonation of one of the amines of Dye 109 and as such will be termed Dye 109a. The stock of Dye 122 was OD=200 measured at 488 nm and the stock of Dye 109a was OD=200 measured at 498 nm. The template was a 1:50,000 dilution of the 78 bp amplicon of the anti-sense C construct described previously. • A master-mixture was made up of: • 350 µl of 2×PCR mix described in Example 33 • 14 l of 25 mM MgCl2 • 175.0 l of DEPC treated H2O • 7 l of 10 mg/ml BSA (New England Biolabs, Beverly, Mass.) • 7 l Taq polymease (Perkin Elmer)+7 l of TaqStart (Clontech)
2.0 l of target template+2.0 l of various dye dilutions were added to 16 µl of Master mixture, and then amplified as described previously in Example 33 except that the incubation at 45° C. for 10 minutes was eliminated since ung was not used for this series of amplifications. The amplification was stopped after 19 cycles. The results of this series of amplifications are seen in FIG. 3. […] For Dye 109a, similar features were seen where 1:10 was inhibitory (lane 18) and 1:30 was optimal (lanes 19 and 20).

anti-sense C amplicon = assay: Amplification of various amounts of target with fixed dye levels, 29 cycles (Example 37); conditions: 1:1000 dilution of SYBR Green
Method: In the previous experiments, a fixed amount of target was amplified in the presence of varying level of dyes. The eventual use of these dyes is going to be with a fixed amount of dye and varying levels of targets. As such, an experiment was carried out using previously determined optimal levels of dyes and various amounts of input target (again using the anti-sense C as a model). • Dilution 1=1:100,000 • Dilution 2=1:1,000,000 • Dilution 3=1:10,000,000 • Dilution 4=1:100,000,000 • Dilution 5=1:1,000,000,000 • Dilution 6=1:10,000,000,000
Selected amounts of target template were amplified on the Light Cycler (Roche) in the presence of various amounts of Dye 122, Dye 109a and SYBR Green.
A master mixture was made up of: • 380 l of 2×PCR mix described in Example 33 • 15.2 l of 25 mM MgCl2 • 190.0 l of DEPC treated H2O • 7.6 l of 10 mg/ml BSA (New England Biolabs, Beverly, Mass.) • 7.6 l Taq polymease (Perkin Elmer)+7.6 l of TaqStart (Clontech)
2.0 l of target template (1:50,000 dilution of the antisense C amplicon)+2.0 l of various dye concentrations were added to 16 µl of Master mixture and amplified as described previously in Example 33 stopping after 29 cycles. Dye additions were from the 1:1000 dilution of SYBR Green, 1:30 of Dye 109a and 1:30 of Dye 122.
At the highest input level (Dil 2 1:1,000,000 dilution of amplicon) no evidence of amplification is seen in the sample without dye.

For `CCCN(CCCN(C)C)c1cc(/C=C2/Sc3ccccc3N2C)c2ccccc2[n+]1-c1ccccc1` [SYBR Green, reference compound], the “amplicon synthesis (gel analysis, FIG. 2)” value ([1]; 1:200 dilution of SYBR Green, lanes 5 and 6) was “a single discrete band”, the “amplicon synthesis (gel analysis, FIG. 2)” value ([1]; all other SYBR Green dilutions) was “no synthesis was evident” and the “non-target amplicon synthesis compared to the no Dye reaction” value ([1]; 40 cycles, 1:200 dilution of SYBR Green) was “reduced”. The “amplification (gel analysis, FIG. 3)” value ([2]; 1:800 dilution of SYBR Green, lanes 4 and 5) was “best amplification”, the “amplification (gel analysis, FIG. 3)” value ([2]; SYBR Green dilutions on either side of 1:800) was “sharp drop off” and the “amplification product (gel analysis, FIG. 5)” value (anti-sense C amplicon; Dil 2 (1:1,000,000) target input) was “faint but visible band”. For the same compound, the “amplification product (gel analysis, FIG. 5)” value (anti-sense C amplicon; further dilutions of target) was “do not show any evidence of an amplification product”.
